Results taken from article PMC12089509, “NorA Efflux Pump Inhibitors: Expanding SAR Knowledge of Pyrazolo[4,3‐c][1,2]benzothiazine 5,5‐Dioxide Derivatives” (Archiv Der Pharmazie, 2025).
Read-outs that look alike come from different tables or passages of the source.

Key:
[1] = target: T1, S. aureus NorA efflux pump (SA-1199B strain, overexpresses the norA gene) (Staphylococcus aureus, UniProt P0A0J7); test: EtBr efflux inhibition assay; format: cell-based; conditions: for inhibition at 50 µM: read-out: EtBr efflux inhibition (%), compound at 50 µM, SA-1199B; for inhibition at 10 µM: read-out: EtBr efflux inhibition (%), compound at 10 µM, SA-1199B
T1 construct: endogenous in cells; host or cells: S. aureus SA-1199B (overexpresses norA; isogenic parent SA-1199)
T1 sequence (P0A0J7 whole entry): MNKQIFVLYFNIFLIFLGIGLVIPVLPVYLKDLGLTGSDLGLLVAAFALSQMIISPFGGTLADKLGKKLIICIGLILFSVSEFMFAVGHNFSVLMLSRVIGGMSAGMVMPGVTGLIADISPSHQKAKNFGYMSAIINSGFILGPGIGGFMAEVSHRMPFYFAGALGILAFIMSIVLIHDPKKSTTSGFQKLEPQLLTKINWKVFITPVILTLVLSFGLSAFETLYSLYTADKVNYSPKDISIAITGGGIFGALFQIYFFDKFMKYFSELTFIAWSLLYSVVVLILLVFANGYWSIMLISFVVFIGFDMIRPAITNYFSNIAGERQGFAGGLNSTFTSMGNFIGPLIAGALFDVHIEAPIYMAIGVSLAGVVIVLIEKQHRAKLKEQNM
Procedure: EtBr efflux inhibition assays were conducted using the S. aureus SA‐1199B strain, which overexpresses the norA gene and has an A116E GrlA substitution. Each compound was tested at 50 µM (see Figure 2). The starting hit compound 1 was used as the internal standard for comparison with the previously reported data.
The cells were grown overnight in cation‐supplemented Mueller–Hinton broth (CAMHB) without any additives at 35°C. The organisms were subsequently diluted into CAMHB to obtain an optical density at 600 nm (OD600) of 0.7–0.8. Subsequently, the cells were pelleted and resuspended at an OD600 of 0.8 in 0.5 mL aliquots of CAMHB containing EtBr and carbonyl cyanide m‐chlorophenylhydrazone (CCCP) to “load” the cells with EtBr (final concentrations of 25 μM for EtBr and 100 μM for CCCP). Following 20 min of incubation at room temperature, the cells were pelleted and resuspended in 1 mL of fresh CAMHB. Immediately thereafter, 200 μL aliquots were transferred into the wells of white 96‐well plates, which either lacked or contained 50 or 10 μM of each test compound. Fluorescence was monitored continuously using a microplate reader (Infinite M200 Pro, TECAN) at excitation and emission wavelengths of 485 and 645 nm, respectively, for a period of 5 min. The experiments were conducted in triplicate, with two technical replicates per biological replicate. The efflux activity of the SA‐1199B strain was expressed as a percentage of fluorescence decrease over a 5‐min time course. The inhibition of this efflux by the test compounds was determined using the following equation: ([efflux in the absence] ‐ [efflux in the presence of test [compound])/[efflux in the absence of test compound] × 100, which yielded the percent efflux inhibition observed.
^a Experiments were performed in triplicate with two technical replicates per biological replicate. Efflux activity of SA-1199B was expressed as percent fluorescence decrease over a 5 min time course. Inhibition of this efflux by test compounds was determined using the equation [efflux in the absence] − [efflux in the presence of test [compound]/[efflux in the absence of test compound] × 100, giving the percent efflux inhibition observed.

[2] = tested on: Staphylococcus aureus SA-1199B; test: MIC determination (broth microdilution) against SA-1199B; format: cell-based; conditions: SA1199B
Description: In this study, the S. aureus strains SA‐1199B (overexpressing norA) and its isogenic parent SA‐1199 (wild type), the pair SA‐K1902 (norA‐depleted) and SA‐K2378 (complemented with a pCU1 plasmid harboring the norA promoting and coding region from SA‐1199B), were used to test EPI activity as described in a previous study. Furthermore, the S. aureus ATCC 29213 was used as the reference strain in MIC determination experiments.

[3] = tested on: Staphylococcus aureus SA-1199B; format: cell-based
Description: For purposes of comparison, compound 1 was included as a reference.

[4] = tested on: S. aureus SA-1199 (wild type); test: MIC determination against wild-type SA-1199; format: cell-based; conditions: Staphylococcus aureus, compound alone
Description: (§1) This finding aligns with their mechanism of action, which involves the inhibition of NorA, which is only basally expressed in the wild‐type SA‐1199 strain.

[5] = tested on: S. aureus SA-1199 (wild type); test: Synergistic assay with CPX against wild-type SA-1199; format: cell-based, Staphylococcus aureus; conditions: EPI at 3.13 µg/mL with CPX
Description: as §1

`CN1c2c(-c3ccc(Cl)cc3)nn(-c3ccc([N+](=O)[O-])cc3)c2-c2ccccc2S1(=O)=O` [Compound 2] gave an inhibition at 50 µM [1] of 0% and an MIC [2] greater than 50 µg/mL.

`Cc1nn(-c2ccc([N+](=O)[O-])cc2)c2c1NS(=O)(=O)c1ccccc1-2` [Compound 4] gave an inhibition at 50 µM [1] of 0% and an MIC [2] greater than 50 µg/mL.

With `Cc1nn(-c2ccc([N+](=O)[O-])cc2)c2c1S(=O)(=O)Nc1ccccc1-2` [Compound 5, 3‐Methyl‐1‐(4‐nitrophenyl)‐1,5‐dihydropyrazolo[4,3‐c][2,1]benzothiazine 4,4‐dioxide] the inhibition at 50 µM [1] was 0% and the MIC [2] was greater than 50 µg/mL.

Work on `Cc1nn(-c2ccc([N+](=O)[O-])cc2)c2c1N(C)S(=O)(=O)c1ccccc1-2` [Compound 6] yielded an inhibition at 50 µM [1] of 22% and an MIC [2] greater than 50 µg/mL.

`Cc1nn(-c2ccc([N+](=O)[O-])cc2)c2c1S(=O)(=O)N(C)c1ccccc1-2` [Compound 7, 3,5‐Dimethyl‐1‐(4‐nitrophenyl)‐1,5‐dihydropyrazolo[4,3‐c][2,1]benzothiazine 4,4‐dioxide] gave an inhibition at 50 µM [1] of 3% and an MIC [2] greater than 50 µg/mL.

`Cc1cc(-c2ccccc2NS(C)(=O)=O)n(-c2ccccc2)n1` [Compound 8, N‐[2‐(3‐Methyl‐1‐phenyl‐1H‐pyrazol‐5‐yl)phenyl]methanesulfonamide] was tested, and the inhibition at 50 µM [1] was 0%, the MIC [2] was greater than 50 µg/mL and the “N° fold CPX MIC reduction” value ([3]; EPI at 12.5 µg/mL) was 2 fold.

`O=S1(=O)Nc2c(-c3ccc(Cl)cc3)n[nH]c2-c2ccccc21` [Compound 9, 3‐(4‐Chlorophenyl)‐1,4‐dihydropyrazolo[4,3‐c][1,2]benzothiazine 5,5‐dioxide] was tested, and the inhibition at 50 µM [1] was 12%, the MIC [2] was greater than 50 µg/mL and the “N° fold CPX MIC reduction” value ([3]; EPI at 12.5 µg/mL) was 2 fold.

With `CN1c2c(-c3ccccc3)n[nH]c2-c2ccccc2S1(=O)=O` [Compound 11, 4‐Methyl‐3‐phenyl‐1,4‐dihydropyrazolo[4,3‐c][1,2]benzothiazine 5,5‐dioxide] the inhibition at 50 µM [1] was less than 70% and the MIC [2] was greater than 50 µg/mL.

Work on `CN1c2c(-c3ccc(F)cc3)n[nH]c2-c2ccccc2S1(=O)=O` [Compound 12, 3‐(4‐Fluorophenyl)‐4‐methyl‐1,4‐dihydropyrazolo[4,3‐c][1,2]benzothiazine 5,5‐dioxide] yielded an inhibition at 10 µM [1] of 22%, an inhibition at 50 µM [1] of 87% and an MIC [4] greater than 50 µg/mL. For the same compound, the MIC [2] was greater than 50 µg/mL and the “synergistic effect with CPX” value [5] was “did not show any synergistic effect”.

`CN1c2c(-c3ccc(F)c(Cl)c3)n[nH]c2-c2ccccc2S1(=O)=O` [Compound 13, 3‐(3‐Chloro‐4‐fluorophenyl)‐4‐methyl‐1,4‐dihydropyrazolo[4,3‐c][1,2]benzothiazine 5,5‐dioxide] gave an inhibition at 10 µM [1] of 0%, an inhibition at 50 µM [1] of 100% and an MIC [4] greater than 50 µg/mL. The MIC [2] was greater than 50 µg/mL, the “N° fold CPX MIC reduction” value ([3]; EPI at 3.12 µg/mL) was 2 fold and the “N° fold CPX MIC reduction” value ([3]; EPI at 12.5 µg/mL) was 4 fold. For the same compound, the “synergistic effect with CPX” value [5] was “did not show any synergistic effect”.

For `CCN1c2c(-c3ccc(F)cc3)n[nH]c2-c2ccccc2S1(=O)=O` [Compound 14, 4‐Ethyl‐3‐(4‐fluorophenyl)‐1,4‐dihydropyrazolo[4,3‐c][1,2]benzothiazine 5,5‐dioxide], the inhibition at 50 µM [1] was 57%, the MIC [2] was greater than 50 µg/mL and the “N° fold CPX MIC reduction” value ([3]; EPI at 12.5 µg/mL) was 2 fold.

With `O=S1(=O)c2ccccc2-c2[nH]nc(-c3ccc(F)cc3)c2N1CCCO` [Compound 15, 3‐[3‐(4‐Fluorophenyl)‐5,5‐dioxidopyrazolo[4,3‐c][1,2]benzothiazin‐4(1H)‐yl]propan‐1‐ol] the inhibition at 50 µM [1] was 17%, the MIC [2] was greater than 50 µg/mL and the “N° fold CPX MIC reduction” value ([3]; EPI at 12.5 µg/mL) was 2 fold.

For `CNC(=O)CN1c2c(-c3ccc(F)cc3)n[nH]c2-c2ccccc2S1(=O)=O` [Compound 16, 2‐[3‐(4‐Fluorophenyl)‐5,5‐dioxidopyrazolo[4,3‐c][1,2]benzothiazin‐4(1H)‐yl]‐N‐methylacetamide], the inhibition at 50 µM [1] was 22%, the MIC [2] was greater than 50 µg/mL and the “N° fold CPX MIC reduction” value ([3]; EPI at 12.5 µg/mL) was 2 fold.

`CNCCN1c2c(-c3ccc(F)cc3)n[nH]c2-c2ccccc2S1(=O)=O` [Compound 17, 2‐[3‐(4‐Fluorophenyl)‐5,5‐dioxidopyrazolo[4,3‐c][1,2]benzothiazin‐4(1H)‐yl]‐N‐methylethanamine] gave an inhibition at 50 µM [1] of 57% and an MIC [2] greater than 50 µg/mL.

For `CN1c2c(-c3ccc(Cl)cc3)nn(CCN3CCCCC3)c2-c2ccccc2S1(=O)=O` [Compound 18, 3‐(4‐Chlorophenyl)‐4‐methyl‐1‐(2‐piperidin‐1‐ylethyl)‐1,4‐dihydropyrazolo[4,3‐c][1,2]benzothiazine 5,5‐dioxide], the inhibition at 10 µM [1] was 37%, the inhibition at 50 µM [1] was greater than 70% and the MIC [4] was greater than 50 µg/mL. For the same compound, the MIC [2] was greater than 50 µg/mL, the “N° fold CPX MIC reduction” value ([3]; EPI at 6.25 µg/mL) was 2 fold and the “N° fold CPX MIC reduction” value ([3]; EPI at 12.5 µg/mL) was 4 fold. The “synergistic effect with CPX” value [5] was “did not show any synergistic effect”.

`CN1c2c(-c3ccc(F)cc3)nn(C)c2-c2ccc(OCCN3CCCCC3)cc2S1(=O)=O` [Compound 20, 3‐(4‐Fluorophenyl)‐1,4‐dimethyl‐7‐(2‐piperidin‐1‐ylethoxy)‐1,4‐dihydropyrazolo[4,3‐c][1,2]benzothiazine 5,5‐dioxide] showed an inhibition at 10 µM [1] of 33%, an inhibition at 50 µM [1] greater than 70% and an MIC [4] greater than 50 µg/mL. For the same compound, the MIC [2] was greater than 50 µg/mL, the “N° fold CPX MIC reduction” value ([3]; EPI at 6.25 µg/mL) was 2 fold and the “N° fold CPX MIC reduction” value ([3]; EPI at 12.5 µg/mL) was 8 fold. The “synergistic effect with CPX” value [5] was “did not show any synergistic effect”.

For `CN1c2c(-c3ccc(F)cc3)nn(C)c2-c2ccc(OCC(O)CO)cc2S1(=O)=O` (stereo not drawn) [Compound 21, 3‐{[3‐(4‐Fluorophenyl)‐1,4‐dimethyl‐5,5‐dioxido‐1,4‐dihydropyrazolo[4,3‐c][1,2]benzothiazin‐7‐yl]oxy}propane‐1,2‐diol], the inhibition at 50 µM [1] was 0% and the MIC [2] was greater than 50 µg/mL.

In the case of `COc1ccc2c(c1)S(=O)(=O)N(C)c1c(-c3ccc(F)cc3)nn(C)c1-2` [Compound 22, 3‐(4‐Fluorophenyl)‐7‐methoxy‐1,4‐dimethyl‐1,4‐dihydropyrazolo[4,3‐c][1,2]benzothiazine 5,5‐dioxide], the inhibition at 50 µM [1] is reported as 22%, the MIC [2] is reported as greater than 50 µg/mL and the “N° fold CPX MIC reduction” value ([3]; EPI at 12.5 µg/mL) is reported as 2 fold.

With `CCN(CC)CCOC1=C(C(=O)c2ccc(F)cc2)N(C)S(=O)(=O)c2ccccc21` [Compound 23, {4‐[2‐(Diethylamino)ethoxy]‐2‐methyl‐1,1‐dioxido‐2H‐1,2‐benzothiazin‐3‐yl}(4‐fluorophenyl)methanone] the inhibition at 50 µM [1] was 36%, the MIC [2] was greater than 50 µg/mL and the “N° fold CPX MIC reduction” value ([3]; EPI at 12.5 µg/mL) was 2 fold.

In the case of `CN1C(C(=O)c2ccc(F)cc2)=C(OCCN2CCCCC2)c2ccccc2S1(=O)=O` [Compound 24, (4‐Fluorophenyl)[2‐methyl‐1,1‐dioxido‐4‐(2‐piperidin‐1‐ylethoxy)‐2H‐1,2‐benzothiazin‐3‐yl]methanone], the inhibition at 50 µM [1] is reported as 38%, the MIC [2] is reported as greater than 50 µg/mL and the “N° fold CPX MIC reduction” value ([3]; EPI at 12.5 µg/mL) is reported as 2 fold.
